For this series, the system named is CCRIS mutagenicity, Ames/micronucleus/aberration tests. In words: CCRIS mutagenicity studies.
The mark [1] stands for this setting: Test System: AMES SALMONELLA TYPHIMURIUM, Strain/Indicator: TA98, Metabolic Activation: NONE, Method: PREINCUBATION
The mark [2] stands for this setting: Test System: AMES SALMONELLA TYPHIMURIUM, Strain/Indicator: TA98, Metabolic Activation: NONE, Method: STANDARD PLATE.
Where [3] appears, read: Test System: AMES SALMONELLA TYPHIMURIUM, Strain/Indicator: TA98, Metabolic Activation: RAT, LIVER, S-9, AROCLOR 1254, Method: STANDARD PLATE.
The mark [4] stands for this setting: Test System: AMES SALMONELLA TYPHIMURIUM, Strain/Indicator: TA100, Metabolic Activation: NONE, Method: PREINCUBATION
Where [5] appears, read: Test System: AMES SALMONELLA TYPHIMURIUM, Strain/Indicator: TA100, Metabolic Activation: NONE, Method: STANDARD PLATE.
The mark [6] stands for this setting: Test System: AMES SALMONELLA TYPHIMURIUM, Strain/Indicator: TA100, Metabolic Activation: RAT, LIVER, S-9, AROCLOR 1254, Method: STANDARD PLATE.
The mark [7] stands for this setting: Test System: AMES SALMONELLA TYPHIMURIUM, Strain/Indicator: TA1535, Metabolic Activation: NONE, Method: STANDARD PLATE.
The mark [8] stands for this setting: Test System: AMES SALMONELLA TYPHIMURIUM, Strain/Indicator: TA1535, Metabolic Activation: RAT, LIVER, S-9, AROCLOR 1254, Method: STANDARD PLATE.
The mark [9] stands for this setting: Test System: AMES SALMONELLA TYPHIMURIUM, Strain/Indicator: TA1537, Metabolic Activation: NONE, Method: STANDARD PLATE.
The mark [10] stands for this setting: Test System: AMES SALMONELLA TYPHIMURIUM, Strain/Indicator: TA1537, Metabolic Activation: RAT, LIVER, S-9, AROCLOR 1254, Method: STANDARD PLATE.
Where [11] appears, read: Test System: AMES SALMONELLA TYPHIMURIUM, Strain/Indicator: TA1538, Metabolic Activation: NONE, Method: STANDARD PLATE.
Where [12] appears, read: Test System: AMES SALMONELLA TYPHIMURIUM, Strain/Indicator: TA1538, Metabolic Activation: RAT, LIVER, S-9, AROCLOR 1254, Method: STANDARD PLATE.

Structures are written as SMILES. Activity calls are given as the source filed them. How the calls were made is not given here.

For `O.[Al+3].[Al+3].[Na+].[Na+].[O-2].[O-2].[O-2].[O-2].[O-2].[O-2].[Si+4]`, the mutagenic call is “inactive; negative” (Test System: AMES SALMONELLA TYPHIMURIUM, Strain/Indicator: TA98, Metabolic Activation: HAMSTER, LIVER, S-9, AROCLOR 1254 (10%), Method: PREINCUBATION); “inactive; negative” under setting [1]; “inactive; negative” under setting [2]; “inactive; negative” (Test System: AMES SALMONELLA TYPHIMURIUM, Strain/Indicator: TA98, Metabolic Activation: RAT, LIVER, S-9, AROCLOR 1254 (10%), Method: PREINCUBATION); “inactive; negative” under setting [3]; “inactive; negative” (Test System: AMES SALMONELLA TYPHIMURIUM, Strain/Indicator: TA100, Metabolic Activation: HAMSTER, LIVER, S-9, AROCLOR 1254 (10%), Method: PREINCUBATION). In addition, the mutagenic call is “inactive; negative” under setting [4]; “inactive; negative” under setting [5]; “inactive; negative” (Test System: AMES SALMONELLA TYPHIMURIUM, Strain/Indicator: TA100, Metabolic Activation: RAT, LIVER, S-9, AROCLOR 1254 (10%), Method: PREINCUBATION); “inactive; negative” under setting [6]; “inactive; negative” (Test System: AMES SALMONELLA TYPHIMURIUM, Strain/Indicator: TA1535, Metabolic Activation: HAMSTER, LIVER, S-9, AROCLOR 1254 (10%), Method: PREINCUBATION); “inactive; negative” (Test System: AMES SALMONELLA TYPHIMURIUM, Strain/Indicator: TA1535, Metabolic Activation: NONE, Method: PREINCUBATION). Moreover, the mutagenic call was “inactive; negative” under setting [7]; “inactive; negative” (Test System: AMES SALMONELLA TYPHIMURIUM, Strain/Indicator: TA1535, Metabolic Activation: RAT, LIVER, S-9, AROCLOR 1254 (10%), Method: PREINCUBATION); “inactive; negative” under setting [8]; “inactive; negative” (Test System: AMES SALMONELLA TYPHIMURIUM, Strain/Indicator: TA1537, Metabolic Activation: HAMSTER, LIVER, S-9, AROCLOR 1254 (10%), Method: PREINCUBATION); “inactive; negative” (Test System: AMES SALMONELLA TYPHIMURIUM, Strain/Indicator: TA1537, Metabolic Activation: NONE, Method: PREINCUBATION); “inactive; negative” under setting [9]. For the same compound, the mutagenic call (Test System: AMES SALMONELLA TYPHIMURIUM, Strain/Indicator: TA1537, Metabolic Activation: RAT, LIVER, S-9, AROCLOR 1254 (10%), Method: PREINCUBATION) was “inactive; negative”; the mutagenic call under setting [10] is “inactive; negative”; the mutagenic call under setting [11] is “inactive; negative”; the mutagenic call under setting [12] is “inactive; negative”; the mutagenic call (Test System: E. COLI, Strain/Indicator: WP2, Metabolic Activation: NONE, Method: STANDARD PLATE) is “inactive; negative”; the mutagenic call (Test System: E. COLI, Strain/Indicator: WP2, Metabolic Activation: RAT, LIVER, S-9, AROCLOR 1254, Method: STANDARD PLATE) is “inactive; negative”.
As to `Cc1cc(S(=O)(=O)O)ccc1N`, the mutagenic call is, setting by setting: (Test System: AMES SALMONELLA TYPHIMURIUM, Strain/Indicator: TA98, Metabolic Activation: HAMSTER, LIVER, S-9, AROCLOR 1254, Method: STANDARD PLATE) “inactive; negative”; under setting [2], “inactive; negative”; under setting [3], “inactive; negative”; (Test System: AMES SALMONELLA TYPHIMURIUM, Strain/Indicator: TA100, Metabolic Activation: HAMSTER, LIVER, S-9, AROCLOR 1254, Method: STANDARD PLATE) “inactive; negative”; under setting [5], “inactive; negative”; under setting [6], “inactive; negative”. In addition, the mutagenic call by setting is: (Test System: AMES SALMONELLA TYPHIMURIUM, Strain/Indicator: TA1535, Metabolic Activation: HAMSTER, LIVER, S-9, AROCLOR 1254, Method: STANDARD PLATE) “inactive; negative”; under setting [7], “inactive; negative”; under setting [8], “inactive; negative”; (Test System: AMES SALMONELLA TYPHIMURIUM, Strain/Indicator: TA1537, Metabolic Activation: HAMSTER, LIVER, S-9, AROCLOR 1254, Method: STANDARD PLATE) “inactive; negative”; under setting [9], “inactive; negative”; under setting [10], “inactive; negative”. The mutagenic call by setting is: (Test System: AMES SALMONELLA TYPHIMURIUM, Strain/Indicator: TA1538, Metabolic Activation: HAMSTER, LIVER, S-9, AROCLOR 1254, Method: STANDARD PLATE) “inactive; negative”; under setting [11], “inactive; negative”; under setting [12], “inactive; negative”; (Test System: MOUSE LYMPHOMA, Strain/Indicator: L5178Y (TK+/TK-), Metabolic Activation: NONE, Method: SUSPENSION/PLATE) “inactive; negative. reevaluation of results: negative”; (Test System: MOUSE LYMPHOMA, Strain/Indicator: L5178Y (TK+/TK-), Metabolic Activation: RAT, LIVER, S-9, AROCLOR 1254, Method: SUSPENSION/PLATE) “active; positive. reevaluation of results: positive”.
Take `Cc1cc(=O)oc2c3c(ccc12)C1(C)OOC1(C)O3` (stereo not given): the mutagenic call under setting [4] was “active; positive”.
Take `Cc1cc(/C=C/c2ccc3cc(N(C)C)ccc3[n+]2C)c(C)n1-c1ccccc1`: the mutagenic call was “active; positive” (Test System: AMES SALMONELLA TYPHIMURIUM, Strain/Indicator: TA98, Metabolic Activation: HUMAN, LIVER, S-9, Method: STANDARD PLATE); “active; positive” under setting [1]; “active; positive” (Test System: AMES SALMONELLA TYPHIMURIUM, Strain/Indicator: TA98, Metabolic Activation: RAT, LIVER, S-9, AROCLOR 1254, Method: PREINCUBATION); “active; positive” (Test System: AMES SALMONELLA TYPHIMURIUM, Strain/Indicator: TA100, Metabolic Activation: HUMAN, LIVER, S-9, Method: STANDARD PLATE); “active; positive” under setting [4]; “active; positive” (Test System: AMES SALMONELLA TYPHIMURIUM, Strain/Indicator: TA100, Metabolic Activation: RAT, LIVER, S-9, AROCLOR 1254, Method: PREINCUBATION). In addition, the mutagenic call by setting is: under setting [7], “inactive; negative”; under setting [8], “inactive; negative”; under setting [9], “inactive; negative”; under setting [10], “inactive; negative”; under setting [11], “inactive; negative”; (Test System: AMES SALMONELLA TYPHIMURIUM, Strain/Indicator: UTH8413, Metabolic Activation: NONE, Method: PREINCUBATION) “inactive; negative”. Moreover, the mutagenic call runs as follows: (Test System: AMES SALMONELLA TYPHIMURIUM, Strain/Indicator: UTH8414, Metabolic Activation: NONE, Method: PREINCUBATION) “active; positive”; (Test System: AMES SALMONELLA TYPHIMURIUM, Strain/Indicator: UTH8414, Metabolic Activation: RAT, LIVER, S-9, AROCLOR 1254, Method: PREINCUBATION) “active; positive”.
As for `Cl/C=C(\Cl)COCCCl`, the mutagenic call (Test System: AMES SALMONELLA TYPHIMURIUM, Strain/Indicator: TA100, Metabolic Activation: RAT, LIVER, S-9, 3-METHYLCHOLANTHRENE, Method: STANDARD PLATE) is “inactive; negative”; the mutagenic call under setting [6] was “active; positive”; the mutagenic call (Test System: AMES SALMONELLA TYPHIMURIUM, Strain/Indicator: TA100, Metabolic Activation: RAT, LIVER, S-9, PHENOBARBITAL, Method: STANDARD PLATE) is “active; positive”; the mutagenic call (Test System: AMES SALMONELLA TYPHIMURIUM, Strain/Indicator: TA100, Metabolic Activation: RAT, LIVER, S-9, Method: STANDARD PLATE) was “inactive; negative”.

For the origin of these results see PubChem BioAssay AID1259407 (Chemical Carcinogenesis Research Information System (CCRIS), 2018).
